From US12692254B2, “Benzimidazole inhibitors of PAD enzymes” (BRISTOL-MYERS SQUIBB COMPANY, priority 2018, dated 2026)

biological target: human PAD4 (hPAD4) (Homo sapiens, UniProt Q9UM07); assay: RFMS human PAD4 functional assay (rapid-fire mass spectrum); type: biochemical; settings: 5 nM hPAD4 enzyme, 250 μM BAEE, 50 μM Calcium; 30 min preincubation, 90 min reaction at 37° C.
Summary of the method: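 PAD4 (10 nM) preincubated 30 min with compound (top final 50 μM), then BAEE substrate added in pH 7.5 HEPES buffer with DTT, 50 μM calcium, TPEN; 90 min at 37° C. After TCA quench, citrulline derivatized with phenyl glyoxal (4 mM final, 30 min, 37° C) and quantified by RapidFire MS against internal standard.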

human PAD4 (hPAD4), sequence (Q9UM07 whole entry): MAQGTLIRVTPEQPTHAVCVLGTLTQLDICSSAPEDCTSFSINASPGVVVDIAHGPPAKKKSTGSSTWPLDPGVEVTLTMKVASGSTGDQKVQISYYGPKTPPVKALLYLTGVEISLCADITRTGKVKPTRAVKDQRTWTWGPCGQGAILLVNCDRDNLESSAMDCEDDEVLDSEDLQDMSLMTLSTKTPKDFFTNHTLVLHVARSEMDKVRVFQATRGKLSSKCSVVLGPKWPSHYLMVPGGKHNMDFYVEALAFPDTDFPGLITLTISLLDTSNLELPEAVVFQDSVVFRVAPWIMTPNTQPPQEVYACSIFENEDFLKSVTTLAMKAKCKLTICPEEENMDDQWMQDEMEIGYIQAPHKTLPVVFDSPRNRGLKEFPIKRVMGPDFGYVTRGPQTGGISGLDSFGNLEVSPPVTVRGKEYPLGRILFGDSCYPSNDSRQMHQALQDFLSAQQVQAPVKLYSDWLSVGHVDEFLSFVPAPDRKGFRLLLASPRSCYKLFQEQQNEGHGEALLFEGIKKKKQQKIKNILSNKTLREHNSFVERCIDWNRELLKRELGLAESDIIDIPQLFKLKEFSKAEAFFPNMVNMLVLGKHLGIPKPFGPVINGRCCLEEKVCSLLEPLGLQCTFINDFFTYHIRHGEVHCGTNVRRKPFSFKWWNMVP

| SMILES | IC50 [nM] |
| --- | --- |
| COc1cc(C(=O)N2CC3CCC2[C@@H]3N)cc2nc(-c3cc4cccnc4n3CC3CC3)n(CC3CN(C(=O)c4cc(F)cc(F)c4)C3)c12 (stereo partly drawn) [Example 427, (7R)-2-{2-[1-(cyclopropylmethyl)-1H-pyrrolo[2,3-b]pyridin-2-yl]-1-{[1-(3,5-difluorobenzoyl)azetidin-3-yl]methyl}-7-methoxy-1H-1,3-benzodiazole-5-carbonyl}-2-azabicyclo[2.2.1]heptan-7-amine] | 24 |
| COc1cc(C(=O)N2C[C@H](N)C[C@@H](F)C2)cc2nc(-c3cc4cccnc4n3CC3CC3)n(Cc3cnn(-c4cccc(F)n4)c3)c12 [Example 344, (3R,5R)-1-{2-[1-(cyclopropylmethyl)-1H-pyrrolo[2,3-b]pyridin-2-yl]-1-{[1-(6-fluoropyridin-2-yl)-1H-pyrazol-4-yl]methyl}-7-methoxy-1H-1,3-benzodiazole-5-carbonyl}-5-fluoropiperidin-3-amine] | 39 |
| COC(=O)N[C@H]1C[C@@H](n2c(-c3cc4cccnc4n3CC3CC3)nc3cc(C(=O)N4CC5CCC4[C@@H]5N)cc(OC)c32)C1 (stereo partly drawn) [Example 301, methyl N-[(1s,3s)-3-{5-[(1R,4R,7R)-7-amino-2-azabicyclo[2.2.1]heptane-2-carbonyl]-2-[1-(cyclopropylmethyl)-1H-pyrrolo[2,3-b]pyridin-2-yl]-7-methoxy-1H-1,3-benzodiazol-1-yl}cyclobutyl]carbamate] | 1000 |
| N[C@@H]1[C@@H]2CC[C@H]1N(C(=O)c1ccc3c(c1)nc(-c1cc4ccccc4n1CC1CC1)n3CC1CN(C(=O)c3ccncc3)C1)C2 [Example 175, (1R,4R,7R)-2-{2-[1-(cyclopropylmethyl)-1H-indol-2-yl]-1-{[1-(pyridine-4-carbonyl)azetidin-3-yl]methyl}-1H-1,3-benzodiazole-5-carbonyl}-2-azabicyclo[2.2.1]heptan-7-amine] | 51 |
| COc1cc(C(=O)N2C[C@H]3CC[C@@H]2[C@@H]3N)cc2nc(-c3cc4ccccc4n3CC3CC3)n(CC3CN(C(=O)c4ccncc4)C3)c12 [Example 138, (1R,4R,7R)-2-{2-[1-(cyclopropylmethyl)-1H-indol-2-yl]-7-methoxy-1-{[1-(pyridine-4-carbonyl)azetidin-3-yl]methyl}-1H-1,3-benzodiazole-5-carbonyl}-2-azabicyclo[2.2.1]heptan-7-amine] | 11 |
| COc1cc(C(=O)N2CC3CCC2[C@@H]3N)cc2nc(-c3cc4cccnc4n3CC3CC3)n([C@H]3C[C@@H](C(N)=O)C3)c12 (stereo partly drawn) [Example 294, (1s,3s)-3-{5-[(1R,4R,7R)-7-amino-2-azabicyclo[2.2.1]heptane-2-carbonyl]-2-[1-(cyclopropylmethyl)-1H-pyrrolo[2,3-b]pyridin-2-yl]-7-methoxy-1H-1,3-benzodiazol-1-yl}cyclobutane-1-carboxamide] | 456 |
| COc1cc(C(=O)N2CC3CCC2[C@@H]3N)cc2nc(-c3cc4ccccc4n3CC3CC3)n(CC3CN(C(=O)c4cncs4)C3)c12 (stereo partly drawn) [Example 448, (7R)-2-{2-[1-(cyclopropylmethyl)-1H-indol-2-yl]-7-methoxy-1-{[1-(1,3-thiazole-5-carbonyl)azetidin-3-yl]methyl}-1H-1,3-benzodiazole-5-carbonyl}-2-azabicyclo[2.2.1]heptan-7-amine] | 44 |
| COc1cc(C(=O)N2C[C@H](N)C[C@@H](F)C2)cc2nc(-c3cc4ccccc4n3CC3CC3)n(CC3CC(F)(F)C3)c12 [Example 477, (3R,5R)-1-{2-[1-(cyclopropylmethyl)-1H-indol-2-yl]-1-[(3,3-difluorocyclobutyl)methyl]-7-methoxy-1H-1,3-benzodiazole-5-carbonyl}-5-fluoropiperidin-3-amine] | 142 |
| COc1cc(C(=O)N2CC3CCC2[C@@H]3N)cc2nc(-c3cc4cccnc4n3CC3CC3)n(Cc3cnn(CC#N)c3)c12 (stereo partly drawn) [Example 390, 2-[4-({5-[(7R)-7-amino-2-azabicyclo[2.2.1]heptane-2-carbonyl]-2-[1-(cyclopropylmethyl)-1H-pyrrolo[2,3-b]pyridin-2-yl]-7-methoxy-1H-1,3-benzodiazol-1-yl}methyl)-1H-pyrazol-1-yl]acetonitrile] | 45 |
| COc1cc(C(=O)N2C[C@H]3CC[C@@H]2[C@@H]3N)cc2nc(-c3cc4cc(Cl)ccc4n3C)n(CC3CN(c4ccnc(C#N)n4)C3)c12 [Example 42, 4-[3-({5-[(1R,4R,7R)-7-amino-2-azabicyclo[2.2.1]heptane-2-carbonyl]-2-(5-chloro-1-methyl-1H-indol-2-yl)-7-methoxy-1H-1,3-benzodiazol-1-yl}methyl)azetidin-1-yl]pyrimidine-2-carbonitrile] | 102 |
| COc1cc(C(=O)N2C[C@H]3CC[C@@H]2[C@@H]3N)cc2nc(-c3cc4cccnc4n3CC3CC3)n(C[C@H]3CCN(c4nccnc4C#N)C3)c12 [Example 202, 3-[(3S)-3-({5-[(1R,4R,7R)-7-amino-2-azabicyclo[2.2.1]heptane-2-carbonyl]-2-[1-(cyclopropylmethyl)-1H-pyrrolo[2,3-b]pyridin-2-yl]-7-methoxy-1H-1,3-benzodiazol-1-yl}methyl)pyrrolidin-1-yl]pyrazine-2-carbonitrile] | 21 |
| COc1cc(C(=O)N2C[C@H]3CC[C@@H]2[C@@H]3N)cc2nc(-c3cc4cccnc4n3CC3CC3)n(CC3CN(c4ccnc(C#N)c4)C3)c12 [Example 31, 4-[3-({5-[(1R,4R,7R)-7-amino-2-azabicyclo[2.2.1]heptane-2-carbonyl]-2-[1-(cyclopropylmethyl)-1H-pyrrolo[2,3-b]pyridin-2-yl]-7-methoxy-1H-1,3-benzodiazol-1-yl}methyl)azetidin-1-yl]pyridine-2-carbonitrile] | 85 |
| COc1cc(C(=O)N2CCC[C@@H](N)C2)cc2nc(-c3cc4cccnc4n3CC3CC3)n([C@H]3C[C@@H](N)C3)c12 [Example 303, (3R)-1-{2-[1-(cyclopropylmethyl)-1H-pyrrolo[2,3-b]pyridin-2-yl]-7-methoxy-1-[(1s,3s)-3-aminocyclobutyl]-1H-1,3-benzodiazole-5-carbonyl}piperidin-3-amine] | 1650 |
| COc1cc(C(=O)N2CC3CCC2[C@@H]3N)cc2nc(-c3cc4ccccc4n3CC3CC3)n(CC3CCS(=O)(=O)C3)c12 (stereo partly drawn) [Example 290, ((7R)-7-amino-2-azabicyclo[2.2.1]heptan-2-yl)(2-(1-(cyclopropylmethyl)-1H-indol-2-yl)-1-((1,1-dioxidotetrahydrothiophen-3-yl)methyl)-7-methoxy-1H-benzo[d]imidazol-5-yl)methanone] | 1590 |
| COc1cc(C(=O)N2C[C@H]3CC[C@@H]2[C@@H]3N)cc2nc(-c3cc4cccnc4n3CC3CC3)n(CC3CN(S(=O)(=O)C(C)C)C3)c12 [Example 335, (1R,4R,7R)-2-{2-[1-(cyclopropylmethyl)-1H-pyrrolo[2,3-b]pyridin-2-yl]-7-methoxy-1-{[1-(propane-2-sulfonyl)azetidin-3-yl)methyl}-1H-1,3-benzodiazole-5-carbonyl}-2-azabicyclo[2.2.1]heptan-7-amine] | 245 |
| COc1cc(C(=O)N2C[C@H](N)C[C@@H](F)C2)cc2nc(-c3cc4cccnc4n3CC3CC3)n(Cc3cnn(-c4cccnc4O)c3)c12 [Example 382, 3-[4-({5-[(3R,5R)-3-amino-5-fluoropiperidine-1-carbonyl]-2-[1-(cyclopropylmethyl)-1H-pyrrolo[2,3-b]pyridin-2-yl]-7-methoxy-1H-1,3-benzodiazol-1-yl}methyl)-1H-pyrazol-1-yl]pyridin-2-ol] | 41 |
